≈ marks a conversion by molar mass, not a printed value. Where two headings read alike, the source gives them in different places.
Experiments:
[1] = test system: Lactobacillus iners ATCC 55195; assay: MIC by broth microdilution method (CLSI M07-A8 / M11-A7); format: cell-based; conditions: ATCC55195
Description: The in vitro activity of nifuratel sulfoxide racemate, R-nifuratel sulfoxide and S-nifuratel sulfoxide was tested on a panel of bacteria, which included both Gram positive and Gram negative bacteria. The minimum inhibitory concentrations (MICs) of the compounds were determined by the broth microdilution method or by the agar dilution method, according to the National Committee for Clinical Laboratory Standards (CLSI) reference methods […]-A8 and M11-A7.

[2] = test system: Escherichia coli ATCC 11775; assay: MIC by broth microdilution method (CLSI M07-A8 / M11-A7); efficiency coefficient derived; format: cell-based; conditions: ATCC11775
Description: (§1) The in vitro activity of nifuratel sulfoxide racemate, R-nifuratel sulfoxide and S-nifuratel sulfoxide was tested on a panel of bacteria, which included both Gram positive and Gram negative bacteria.
(§2) The minimum inhibitory concentrations (MICs) of the compounds were determined by the broth microdilution method or by the agar dilution method, according to the National Committee for Clinical Laboratory Standards (CLSI) reference methods M07-A8 and M11-A7.
(§3) The efficiency coefficient (EC) of nifuratel sulfoxide vs. nifuratel was calculated for each tested strain as follows: EC = relative oral bioavailability*[…] [formula]
(§4) Where: • nifS = nifuratel sulfoxide • nif = nifuratel • EC = 1 is indicative of equivalent efficiency between nifuratel sulfoxide and nifuratel. • EC < 1 is indicative of a lower efficiency of nifuratel sulfoxide vs. nifuratel • EC > 1 is indicative of a higher efficiency of nifS vs. nif

[3] = test system: Klebsiella pneumonia ATCC 10031; assay: as above; format: cell-based; conditions: Klebsiella pneumoniae, ATCC10031
Description: as §1, §2, §3, §4

[4] = test system: Micrococcus pyogenes ATCC 11631; assay: as above; format: cell-based; conditions: Staphylococcus aureus, ATCC11631
Description: as §1, §2, §3, §4

[5] = test system: Neisseria gonorrhoeae ATCC 19424; assay: as above; format: cell-based; conditions: ATCC19424
Description: as §1, §2, §3, §4

[6] = test system: Proteus mirabilis ATCC 14153; assay: as above; format: cell-based; conditions: ATCC14153
Description: as §1, §2, §3, §4

[7] = test system: Salmonella paratyphi B ATCC 10719; assay: as above; format: cell-based; conditions: Salmonella enterica, read-out: MIC
Description: as §1, §2, §3, §4

[8] = test system: Salmonella typhimurium ATCC 14028; assay: as above; format: cell-based; conditions: Salmonella enterica
Description: as §1, §2, §3, §4

[9] = test system: Shigella sonnei ATCC 11060; assay: as above; format: cell-based; conditions: ATCC11060, read-out: MIC
Description: as §1, §2, §3, §4

[10] = test system: Staphylococcus aureus (MRSA); assay: as above; format: cell-based
Description: as §1, §2, §3, §4

[11] = test system: Atopobium vaginae; assay: MIC by agar dilution method (CLSI M07-A8 / M11-A7); efficiency coefficient derived; format: cell-based; conditions: for MIC: Fannyhessea vaginae
Description: as §1, §2, §3, §4

[12] = test system: Gardnerella vaginalis; assay: as above; format: cell-based; conditions: for MIC: Gardnerella vaginalis
Description: as §1, §2, §3, §4

[13] = Rat pharmacokinetics in plasma, non compartmental analysis; format: in vivo, male rats
Description: The pharmacokinetic profiles in plasma of nifuratel and nifuratel sulfoxide were tested after intravenous administration (2mg/kg) and oral gavage (15mg/kg) in male rats. […]

[14] = Metabolic profiling of nifuratel in human urines by LC/MS/MS after oral administration; format: in vivo
Description: As a matter of fact, metabolic profiling of nifuratel, following oral administration, was assessed in human urines by liquid chromatography/tandem mass spectrometry (LC/MS/MS).
More in details, urines of two subjects treated orally with nifuratel were collected at the following time-points: pre-dose, 0-4, 4-8, 8-12, 12-24, 24-36 and 36-48 h after treatment.
Nifuratel was not detected in any of the urine samples. […] Based on such a discovery, the applicant has performed both in vitro and in vivo tests in order to establish whether nifuratel sulfoxide is endowed with anti-bacterial activity.

[15] = 2mg/kg intravenous administration, male rats
[16] = 15mg/kg oral administration, male rats
[17] = IV (2mg/Kg), male rats, plasma, mean
[18] = rat, in vivo, IV (2mg/Kg), male rats, plasma, mean
[19] = rat, in vivo, XOS (15mg/kg), oral gavage, male rats, plasma, mean
[20] = male, rat, in vivo, iv, 2 mg/kg
[21] = male, rat, in vivo, po, 15 mg/kg

Work on C[S+]([O-])CC1CN(/N=C/c2ccc([N+](=O)[O-])o2)C(=O)O1 (racemic) [Nifuratel sulfoxide, nifuratel sulfoxide] yielded an MIC ([1]; broth microdilution, Lactobacillus iners ATCC 55195, read-out: MIC) of 16 µg/mL (≈ 53.1 µM), an MIC ([2]; broth microdilution, Escherichia coli ATCC 11775, read-out: MIC) of 16 µg/mL (≈ 53.1 µM) and an MIC ([3]; broth microdilution, Klebsiella pneumonia ATCC 10031, read-out: MIC) of 16 µg/mL (≈ 53.1 µM). For the same compound, the MIC ([4]; broth microdilution, Micrococcus pyogenes ATCC 11631, read-out: MIC) was 32 µg/mL (≈ 106 µM), the MIC ([5]; broth microdilution, Neisseria gonorrhoeae ATCC 19424, read-out: MIC) was 2 µg/mL (≈ 6.64 µM) and the MIC ([6]; broth microdilution, Proteus mirabilis ATCC 14153, read-out: MIC) was 8 µg/mL (≈ 26.6 µM). For the same compound, the MIC [7] was 8 µg/mL (≈ 26.6 µM), the MIC ([8]; broth microdilution, Salmonella typhimurium ATCC 14028, read-out: MIC) was 32 µg/mL (≈ 106 µM) and the MIC [9] was 16 µg/mL (≈ 53.1 µM). It also gave an MIC ([10]; broth microdilution, Staphylococcus aureus (MRSA), read-out: MIC) of 16 µg/mL (≈ 53.1 µM), an MIC ([11]; CCUG38953, agar dilution, strain CCUG 38953, read-out: MIC) of 2 µg/mL (≈ 6.64 µM) and an MIC ([11]; CCUG39382, agar dilution, strain CCUG 39382, read-out: MIC) of 1 µg/mL (≈ 3.32 µM). The MIC ([11]; CCUG42099, agar dilution, strain CCUG 42099, read-out: MIC) was 2 µg/mL (≈ 6.64 µM), the MIC ([11]; CCUG43049, agar dilution, strain CCUG 43049, read-out: MIC) was 4 µg/mL (≈ 13.3 µM) and the MIC ([11]; CCUG44061, agar dilution, strain CCUG 44061, read-out: MIC) was 1 µg/mL (≈ 3.32 µM). It also gave an MIC ([11]; CCUG44156, agar dilution, strain CCUG 44156, read-out: MIC) of 1 µg/mL (≈ 3.32 µM), an MIC ([11]; CCUG48515, agar dilution, strain CCUG 48515, read-out: MIC) of 2 µg/mL (≈ 6.64 µM) and an MIC ([11]; CCUG55226, agar dilution, strain CCUG 55226, read-out: MIC) of 4 µg/mL (≈ 13.3 µM). The MIC ([11]; CCUG55227, agar dilution, strain CCUG 55227, read-out: MIC) was 4 µg/mL (≈ 13.3 µM), the “in vitro antimicrobial activity (in words)” value ([11]; tested Atopobium vaginae strains) was “good activity” and the MIC ([12]; ATCC14018, agar dilution, strain ATCC 14018, read-out: MIC) was 8 µg/mL (≈ 26.6 µM). For the same compound, the MIC ([12]; agar dilution, strain C2, read-out: MIC) was 16 µg/mL (≈ 53.1 µM), the MIC ([12]; agar dilution, strain D2, read-out: MIC) was 32 µg/mL (≈ 106 µM) and the MIC ([12]; agar dilution, strain E2, read-out: MIC) was 32 µg/mL (≈ 106 µM). It also gave an MIC ([12]; agar dilution, strain G2, read-out: MIC) of 32 µg/mL (≈ 106 µM), an MIC ([12]; agar dilution, strain H2, read-out: MIC) of 8 µg/mL (≈ 26.6 µM) and an MIC ([12]; agar dilution, strain J2, read-out: MIC) of 32 µg/mL (≈ 106 µM). The MIC ([12]; agar dilution, strain K2, read-out: MIC) was 32 µg/mL (≈ 106 µM), the “in vitro antimicrobial activity (in words)” value ([12]; tested Gardnerella vaginalis strains) was “good activity” and the “AUC, folds higher than nifuratel” value [13, 15] was “over 5 folds”. For the same compound, the “Cmax, folds higher than nifuratel” value [13, 15] was 4 folds, the “clearance, folds slower with respect to nifuratel” value [13, 15] was “over 5 folds” and the “AUC, folds higher than nifuratel” value [13, 16] was 30 folds. The “Cmax, folds higher than nifuratel” value [13, 16] was 37 folds, the “increased bioavailability versus nifuratel” value [13, 16] was 5 fold and the T1/7 [13, 17] was 15.5 min. For the same compound, the Tlast [13, 17] was 120 min, the Vss [13, 17] was 0.865 kg⁻¹ and the “Mean Fpo” value ([13]; XOS (15mg/kg), oral gavage, male rats) was 11%. For the same compound, the Tlast ([13]; XOS (15mg/kg), oral gavage, male rats, plasma, mean) was 240 min, the AUC(0-inf) [13, 18] was 703 ng·h/mL and the AUC(0-t) [13, 18] was 700 ng·h/mL. For the same compound, the MRT [13, 18] was 17.7 min, the clearance [13, 18] was 47.5 mL/min/kg and the C0 ([13]; rat, in vivo, IV (2mg/Kg), male rats, plasma, mean, read-out: C0) was 2820 ng/mL. For the same compound, the concentration at 120 min ([13]; rat, in vivo, IV (2mg/Kg), male rats, plasma, mean, read-out: Clast) was 73 ng/mL, the Cmax ([13]; rat, in vivo, IV (2mg/Kg), male rats, plasma, mean, read-out: Cmax) was 2220 ng/mL and the Tmax ([13]; rat, in vivo, IV (2mg/Kg), male rats, plasma, mean, read-out: Tmax (converted)) was 2 min. It also gave an AUC(0-t) [13, 19] of 605 ng·h/mL, an MRT [13, 19] of 94 min and a half-life [13, 19] of 128 min. It also gave a concentration at 240 min ([13]; rat, in vivo, XOS (15mg/kg), oral gavage, male rats, plasma, mean, read-out: Clast) of 80.6 ng/mL, a Cmax ([13]; rat, in vivo, XOS (15mg/kg), oral gavage, male rats, plasma, mean, read-out: Cmax) of 298 ng/mL and a Tmax ([13]; rat, in vivo, XOS (15mg/kg), oral gavage, male rats, plasma, mean, read-out: Tmax (converted)) of 23 min. The “metabolite found in urine” value ([14]; two subjects treated orally with nifuratel, attributed by mass spectrometry) was “major metabolite”.
With CSCC1CN(/N=C/c2ccc([N+](=O)[O-])o2)C(=O)O1 (stereo not drawn) [Nifuratel] the MIC ([1]; Lactobacillus iners) was 16 µg/mL (≈ 56.1 µM), the MIC ([2]; Escherichia coli) was 1 µg/mL (≈ 3.51 µM) and the MIC [3] was 2 µg/mL (≈ 7.01 µM). The MIC [4] was 1 µg/mL (≈ 3.51 µM), the MIC ([5]; Neisseria gonorrhoeae) was 0.25 µg/mL (≈ 0.876 µM) and the MIC ([6]; Proteus mirabilis) was 8 µg/mL (≈ 28 µM). It also gave an MIC [7] of 2 µg/mL (≈ 7.01 µM), an MIC [8] of 4 µg/mL (≈ 14 µM) and an MIC [9] of 1 µg/mL (≈ 3.51 µM). For the same compound, the MIC ([10]; Staphylococcus aureus, MRSA) was 2 µg/mL (≈ 7.01 µM), the MIC ([11]; CCUG38953) was 0.125 µg/mL (≈ 0.438 µM) and the MIC ([11]; CCUG39382) was 0.25 µg/mL (≈ 0.876 µM). The MIC ([11]; CCUG42099) was 0.5 µg/mL (≈ 1.75 µM), the MIC ([11]; CCUG43049) was 0.25 µg/mL (≈ 0.876 µM) and the MIC ([11]; CCUG44061) was 0.5 µg/mL (≈ 1.75 µM). For the same compound, the MIC ([11]; CCUG44156) was 0.5 µg/mL (≈ 1.75 µM), the MIC ([11]; CCUG48515) was 1 µg/mL (≈ 3.51 µM) and the MIC ([11]; CCUG55226) was 1 µg/mL (≈ 3.51 µM). The MIC ([11]; CCUG55227) was 0.25 µg/mL (≈ 0.876 µM), the MIC ([12]; ATCC14018, agar dilution, strain ATCC 14018) was 2 µg/mL (≈ 7.01 µM) and the MIC ([12]; agar dilution, strain C2) was 8 µg/mL (≈ 28 µM). The MIC ([12]; agar dilution, strain D2) was 4 µg/mL (≈ 14 µM), the MIC ([12]; agar dilution, strain E2) was 2 µg/mL (≈ 7.01 µM) and the MIC ([12]; agar dilution, strain G2) was 2 µg/mL (≈ 7.01 µM). For the same compound, the MIC ([12]; agar dilution, strain H2) was 1 µg/mL (≈ 3.51 µM), the MIC ([12]; agar dilution, strain J2) was 2 µg/mL (≈ 7.01 µM) and the MIC ([12]; agar dilution, strain K2) was 4 µg/mL (≈ 14 µM). For the same compound, the C0 [13, 20] was 798 ng/mL, the T1/7 [13, 20] was 24 min and the Tlast [13, 20] was 120 min. The concentration at 120 min [13, 20] was 5 ng/mL, the Cmax [13, 21] was 8 ng/mL and the Tmax [13, 21] was 30 min. The Vss ([13]; rat, in vivo, iv, 2 mg/kg) was 4.5 kg⁻¹ and the “detection of parent compound in urine samples” value ([14]; in vivo, po) was “not detected”.

From patent EP2797914B1, “NIFURATEL SULFOXIDE FOR USE IN THE TREATMENT OF BACTERIAL INFECTIONS” (Polichem SA, priority 2011, dated 2013)
